Measurements reported in patent publication US5198418A, “Substituted alkylamides of teicoplanin compounds” (Gruppo Lepetit S.p.A., priority 1987, dated 1993).

Columns and labels:
S. pyogenes C 203 = test: in vivo activity in mice infected with S. pyogenes
[1] = tested on: Pseudomonas aeruginosa ATCC 10145; test: in vitro antibacterial activity, MIC; format: cell-based; conditions: inoculum about 10^4 CFU/ml, 18-24 h at 37° C.
Description: (§1) ISOSENSITEST broth, culture medium (Oxoid) and Todd-Hewitt broth, culture medium (Difco) are used for growing staphylococci and streptococci, respectively. Broth cultures are diluted so that the final inoculum is about 10^4 colony forming units/ml (CFU/ml).

Staph. aureus Tour = test: in vitro antibacterial activity, MIC; format: cell-based; conditions: inoculum about 10^4 CFU/ml, 18-24 h at 37° C.
Description: as §1

[2] = tested on: Proteus vulgaris X 19H ATCC 881; test: in vitro antibacterial activity, MIC; format: cell-based; conditions: inoculum about 10^4 CFU/ml, 18-24 h at 37° C.
Description: as §1

[3] = tested on: Strepto. faecalis ATCC 7080; test: in vitro antibacterial activity, MIC; format: cell-based; conditions: inoculum about 10^4 CFU/ml, 18-24 h at 37° C.
Description: as §1

E. coli SKF 12140 = test: in vitro antibacterial activity, MIC; format: cell-based; conditions: inoculum about 10^4 CFU/ml, 18-24 h at 37° C.
Description: as §1

[4] = tested on: Staph. epidermidis ATCC 12228; test: in vitro antibacterial activity, MIC; format: cell-based; conditions: inoculum about 10^4 CFU/ml, 18-24 h at 37° C.
Description: as §1

Staph. haemoliticus 602 = test: in vitro antibacterial activity, MIC; format: cell-based; conditions: inoculum about 10^4 CFU/ml, 18-24 h at 37° C.
Description: as §1

[5] = tested on: Strepto. pneumoniae UC 41; test: in vitro antibacterial activity, MIC; format: cell-based; conditions: inoculum about 10^4 CFU/ml, 18-24 h at 37° C.
Description: as §1

Strepto. pyogenes C 203 = test: in vitro antibacterial activity, MIC; format: cell-based; conditions: inoculum about 10^4 CFU/ml, 18-24 h at 37° C.
Description: as §1

| MIC [1] | MIC (Staph. aureus Tour) | MIC [2] | MIC [3] | MIC (E. coli SKF 12140) | MIC [4] | MIC (Staph. haemoliticus 602) | MIC [5] | MIC (Strepto. pyogenes C 203) | SMILES | ED50 (S. pyogenes C 203; route of administration p.o.) | ED50 (S. pyogenes C 203; route of administration s.c) |
| --- | --- | --- | --- | --- | --- | --- | --- | --- | --- | --- | --- |
|  |  |  |  |  |  |  |  |  | CCCCC(NC(=O)C1NC(=O)C2NC(=O)C(NC(=O)C3NC(=O)C4NC(=O)C(Cc5ccc(c(Cl)c5)Oc5cc3cc(c5O)Oc3ccc(cc3Cl)C2O)NC(=O)C(NC(=O)OC(C)(C)C)c2ccc(O)c(c2)Oc2cc(O)cc4c2)c2ccc(O)c(c2)-c2c(O)cc(O)cc21)C(=O)NCCS (centres unmarked) [Compound 20] | > 300 mg/kg | 8.70 mg/kg |
| > 128 mg/L | 0.12 mg/L | > 128 mg/L | 0.12 mg/L | > 128 mg/L | 0.06 mg/L | 0.12 mg/L | 0.12 mg/L | 0.12 mg/L | Cl.NC1C(=O)NC2Cc3ccc(c(Cl)c3)Oc3cc4cc(c3O)Oc3ccc(cc3Cl)C(O)C3NC(=O)C(NC(=O)C4NC(=O)C(NC2=O)c2cc(O)cc(c2)Oc2cc1ccc2O)c1ccc(O)c(c1)-c1c(O)cc(O)cc1C(C(=O)NC(CCC(=O)N1CCSCC1)C(=O)N1CCSCC1)NC3=O (centres unmarked) [Compound 22] |  |  |
